The results in this text go back to patent publication US12540131B2 (Merck Sharp & Dohme LLC, priority 2019, dated 2026).

Structures are written as SMILES. A value given as a limit tells only on which side of the number the result lay.

GST tagged truncated human mutant G2019S LRRK2, sequence (Q5S007 970-2527 G2019S): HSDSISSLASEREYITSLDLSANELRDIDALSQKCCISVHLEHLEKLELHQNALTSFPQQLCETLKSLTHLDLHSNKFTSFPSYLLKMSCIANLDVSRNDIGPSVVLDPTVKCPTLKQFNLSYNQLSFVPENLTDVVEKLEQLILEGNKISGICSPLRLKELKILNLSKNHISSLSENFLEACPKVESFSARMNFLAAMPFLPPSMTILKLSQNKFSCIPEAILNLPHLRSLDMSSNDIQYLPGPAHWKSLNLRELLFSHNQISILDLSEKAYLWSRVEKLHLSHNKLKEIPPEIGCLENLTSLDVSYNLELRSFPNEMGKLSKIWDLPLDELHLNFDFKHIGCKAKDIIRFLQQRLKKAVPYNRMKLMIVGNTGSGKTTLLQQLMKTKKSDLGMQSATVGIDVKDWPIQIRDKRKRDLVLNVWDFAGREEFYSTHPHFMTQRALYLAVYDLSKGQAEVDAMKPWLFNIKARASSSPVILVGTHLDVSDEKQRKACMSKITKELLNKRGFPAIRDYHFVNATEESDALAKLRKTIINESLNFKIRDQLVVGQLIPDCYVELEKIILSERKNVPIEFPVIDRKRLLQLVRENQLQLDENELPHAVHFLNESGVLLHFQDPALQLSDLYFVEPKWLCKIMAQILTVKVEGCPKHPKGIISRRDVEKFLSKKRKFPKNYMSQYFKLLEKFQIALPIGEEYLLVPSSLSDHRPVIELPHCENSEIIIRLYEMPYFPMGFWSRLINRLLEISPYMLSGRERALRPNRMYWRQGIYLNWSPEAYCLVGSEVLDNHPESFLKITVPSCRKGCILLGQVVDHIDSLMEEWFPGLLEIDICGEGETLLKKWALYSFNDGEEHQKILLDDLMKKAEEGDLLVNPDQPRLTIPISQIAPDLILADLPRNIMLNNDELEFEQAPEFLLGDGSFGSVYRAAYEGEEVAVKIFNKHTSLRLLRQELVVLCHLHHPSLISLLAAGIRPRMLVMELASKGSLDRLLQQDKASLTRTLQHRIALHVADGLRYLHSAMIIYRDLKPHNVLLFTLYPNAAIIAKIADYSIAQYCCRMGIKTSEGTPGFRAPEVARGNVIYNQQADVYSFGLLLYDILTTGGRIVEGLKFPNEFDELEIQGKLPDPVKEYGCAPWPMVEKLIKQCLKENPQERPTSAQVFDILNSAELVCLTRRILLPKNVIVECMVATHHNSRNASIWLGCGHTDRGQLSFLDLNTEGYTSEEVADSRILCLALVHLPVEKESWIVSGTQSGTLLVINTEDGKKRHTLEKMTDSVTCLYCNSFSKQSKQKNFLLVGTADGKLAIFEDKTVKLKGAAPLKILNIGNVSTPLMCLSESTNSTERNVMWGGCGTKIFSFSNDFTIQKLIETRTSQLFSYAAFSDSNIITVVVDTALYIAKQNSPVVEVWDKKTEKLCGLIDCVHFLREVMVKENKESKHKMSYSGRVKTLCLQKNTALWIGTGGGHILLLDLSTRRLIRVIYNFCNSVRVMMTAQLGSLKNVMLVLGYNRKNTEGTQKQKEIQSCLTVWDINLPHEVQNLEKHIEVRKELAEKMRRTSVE

The target of the first assay is GST tagged truncated human mutant G2019S LRRK2 (Homo sapiens (Human), UniProt Q5S007, G2019S). As to the kind of experiment: LRRK2 Km ATP LanthaScreen Assay. The format is biochemical. As to conditions: G2019S LRRK2, 134 μM ATP (Km ATP), mean values. The method in brief:
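Enzyme (GST-tagged, truncated) was preincubated with compound for 15 min at RT in 50 mM Tris pH 8.5, 10 mM MgCl2, 0.01% Brij-35, 1 mM EGTA, 2 mM DTT and 0.05 mM orthovanadate. Fluorescein-LRRKtide and 134 μM ATP (Km) were then added for 90 min. EDTA and Tb-anti-pERM antibody stopped the reaction; the TR-FRET 520/495 ratio gave 4-parameter IC50s, reported as mean pIC50.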
A general note: TR-FRET usually uses a lanthanide donor and a delayed reading to cut background.
`Cc1nn(CC2(C#N)CC2)cc1Nc1ncc2cc(Cl)c(C3CCN(C4COC4)CC3)cc2n1` [Ex-2.17, 1-{[4-({6-chloro-7-[1-(oxetan-3-yl)piperidin-4-yl]quinazolin-2-yl}amino)-3-methyl-1H-pyrazol-1-yl]methyl}cyclopropane-1-carbonitrile]: the “LRRK2 pIC50” value is listed as over 9.20.

For `Cc1c(Nc2ncc3cc(Cl)c(C4CCN(C5COC5)CC4)cc3n2)cnn1C(C)(C)C#N` [Ex-2.19, 2-[4-({6-chloro-7-[1-(oxetan-3-yl)piperidin-4-yl]quinazolin-2-yl}amino)-5-methyl-1H-pyrazol-1-yl]-2-methylpropanenitrile], the “LRRK2 pIC50” value is listed as over 9.20.

`Cc1c(Nc2ncc3cc(Cl)c(C4CCN(C5(C)COC5)CC4)cc3n2)cnn1C(C)(C)C#N` [Ex-2.20, 2-[4-({6-chloro-7-[1-(3-methyloxetan-3-yl)piperidin-4-yl]quinazolin-2-yl}amino)-5-methyl-1H-pyrazol-1-yl]-2-methylpropanenitrile]: the “LRRK2 pIC50” value is recorded as over 9.20.

As for `Cc1c(Nc2ncc3cc(Cl)c(C4CCN(C5(C)COC5)CC4)cc3n2)cnn1C12CC(C1)C2` [Ex-2.22, N-[1-(bicyclo[1.1.1]pentan-1-yl)-5-methyl-1H-pyrazol-4-yl]-6-chloro-7-[1-(3-methyloxetan-3-yl)piperidin-4-yl]quinazolin-2-amine], the “LRRK2 pIC50” value is reported as over 9.20.

For `COCC12CC(n3ncc(Nc4ncc5cc(Cl)c(C6CCN(C7COC7)CC6)cc5n4)c3C)(C1)C2` [Ex-2.31, 6-chloro-N-{1-[3-(methoxymethyl)bicyclo[1.1.1]pentan-1-yl]-5-methyl-1H-pyrazol-4-yl}-7-[1-(oxetan-3-yl)piperidin-4-yl]quinazolin-2-amine], the “LRRK2 pIC50” value is reported as over 9.20.

On to `OC1COCC1n1ncc(Nc2ncc3cc(Cl)c(C4CCN(C5COC5)CC4)cc3n2)c1Cl` (stereo not drawn) [Ex-2.48, 4-[5-chloro-4-({6-chloro-7-[1-(oxetan-3-yl)piperidin-4-yl]quinazolin-2-yl}amino)-1H-pyrazol-1-yl]oxolan-3-ol], for which the “LRRK2 pIC50” value came to 8.77.

With `COC(C)(C)C12CC(n3cc(Nc4ncc5cc(Cl)c(C6CCN(C7(C)COC7)CC6)cc5n4)cn3)(C1)C2` [Ex-2.56, 6-chloro-N-{1-[3-(2-methoxypropan-2-yl)bicyclo[1.1.1]pentan-1-yl]-1H-pyrazol-4-yl}-7-[1-(3-methyloxetan-3-yl)piperidin-4-yl]quinazolin-2-amine], the “LRRK2 pIC50” value is 8.75.

For the compound `CC1(N2CCC(c3cc4nc(Nc5cnn(C67CC(CO)(C6)C7)c5)ncc4cc3Cl)CC2)COC1` [Ex-2.57, {3-[4-({6-chloro-7-[1-(3-methyloxetan-3-yl)piperidin-4-yl]quinazolin-2-yl}amino)-1H-pyrazol-1-yl]bicyclo[1.1.1]pentan-1-yl}methanol], the “LRRK2 pIC50” value is over 9.20.

On to `CC1(N2CCC(c3cc4nc(Nc5cnn(C67CC(C(C)(C)O)(C6)C7)c5)ncc4cc3Cl)CC2)COC1` [Ex-2.58, 2-{3-[4-({6-chloro-7-[1-(3-methyloxetan-3-yl)piperidin-4-yl]quinazolin-2-yl}amino)-1H-pyrazol-1-yl]bicyclo[1.1.1]pentan-1-yl}propan-2-ol], for which the “LRRK2 pIC50” value was 9.17.

Consider `CN(C)CC12CC(n3cc(Nc4ncc5cc(Cl)c(C6CCN(C7(C)COC7)CC6)cc5n4)cn3)(C1)C2` [Ex-2.59, 6-chloro-N-(1-{3-[(dimethylamino)methyl]bicyclo [1.1.1]pentan-1-yl}-1H-pyrazol-4-yl)-7-[1-(3-methyloxetan-3-yl)piperidin-4-yl]quinazolin-2-amine], for which the “LRRK2 pIC50” value is over 9.20.

As for `CC1(N2CCC(c3cc4nc(Nc5cnn(C67CC(CN8CC(F)(F)C8)(C6)C7)c5)ncc4cc3Cl)CC2)COC1` [Ex-2.60, 6-chloro-N-(1-{3-[(3,3-difluoroazetidin-1-yl)methyl]bicyclo[1.1.1]pentan-1-yl}-1H-pyrazol-4-yl)-7-[1-(3-methyloxetan-3-yl)piperidin-4-yl]quinazolin-2-amine], the “LRRK2 pIC50” value is given as over 9.20.

For the compound `Cc1nn(CC(C)(C)O)cc1Nc1ncc2cc(Cl)c(C3CCN(C4COC4)CC3)cc2n1` [Ex-2.61, 1-[4-({6-chloro-7-[1-(oxetan-3-yl)piperidin-4-yl]quinazolin-2-yl}amino)-3-methyl-1H-pyrazol-1-yl]-2-methylpropan-2-ol], the “LRRK2 pIC50” value is 8.66.

As to `Cn1nc(C2CC2)cc1Nc1ncc2cc(Cl)c(C3CCN(C4COC4)CC3)cc2n1` [Ex-2.62, 6-chloro-N-(3-cyclopropyl-1-methyl-1H-pyrazol-5-yl)-7-[1-(oxetan-3-yl)piperidin-4-yl]quinazolin-2-amine], the “LRRK2 pIC50” value turned out to be 7.88.

With `Cc1c(Nc2ncc3cc(Cl)c(C4CCC(C)(O)CC4)cc3n2)cnn1C1CC1` (stereo not drawn) [Ex-2.63, cis- or trans-4-{6-chloro-2-[(1-cyclopropyl-5-methyl-1H-pyrazol-4-yl)amino]quinazolin-7-yl}-1-methylcyclohexan-1-ol], the “LRRK2 pIC50” value stood at 8.92.

As to `Cc1cc2cnc(Nc3cnn(C4CC4)c3Cl)nc2cc1C1CCC(C)(O)CC1` (stereo not drawn) [Ex-2.64, cis- or trans-4-{2-[(5-chloro-1-cyclopropyl-1H-pyrazol-4-yl)amino]-6-methylquinazolin-7-yl}-1-methylcyclohexan-1-ol], the “LRRK2 pIC50” value worked out at 9.02.

`[2H]C([2H])([2H])n1ncc(Nc2ncc3cc(Cl)c(C4CCN(C5(C)COC5)CC4)cc3n2)c1Cl` [Ex-2.72, 6-chloro-N-(5-chloro-1-(methyl-d3)-1H-pyrazol-4-yl)-7-(1-(3-methyloxetan-3-yl)piperidin-4-yl)quinazolin-2-amine]: the “LRRK2 pIC50” value is on record as 8.90.

Consider `CC(C)(O)Cn1ncc(Nc2ncc3cc(Cl)c(C4CCN(C5COC5)CC4)cc3n2)c1Cl` [Ex-4.3, 1-(5-chloro-4-((6-chloro-7-(1-(oxetan-3-yl)piperidin-4-yl)quinazolin-2-yl)amino)-1H-pyrazol-1-yl)-2-methylpropan-2-ol], for which the “LRRK2 pIC50” value is over 9.20.

For `CC1(n2ncc(Nc3ncc4cc(Cl)c(C5CCN(C(F)(F)F)CC5)cc4n3)c2Cl)CC1` [Ex-4.7, 6-chloro-N-(5-chloro-1-(1-methylcyclopropyl)-1H-pyrazol-4-yl)-7-(1-(trifluoromethyl)piperidin-4-yl)quinazolin-2-amine], the “LRRK2 pIC50” value turned out to be 7.74.

`CC(=O)N1CCC(c2cc3nc(Nc4cnn(C5CC5)c4Cl)ncc3cc2Cl)C[C@@H]1C` (stereo partly drawn) [Ex-4.8]: the “LRRK2 pIC50” value is reported as 7.39.

`O=S1(=O)CC(N2CCC(c3cc4nc(Nc5cnn(CC(F)F)c5Cl)ncc4cc3Cl)CC2)C1` [Ex-4.14, 3-(4-(6-chloro-2-((5-chloro-1-(2,2-difluoroethyl)-1H-pyrazol-4-yl)amino)quinazolin-7-yl)piperidin-1-yl)thietane 1,1-dioxide]: the “LRRK2 pIC50” value is listed as over 9.20.

Consider `Clc1cc2cnc(Nc3cnn(C4CCC4)c3Cl)nc2cc1C1CCN(C2COC2)CC1` [Ex-4.15, 6-chloro-N-(5-chloro-1-cyclobutyl-1H-pyrazol-4-yl)-7-[1-(oxetan-3-yl)piperidin-4-yl]quinazolin-2-amine], for which the “LRRK2 pIC50” value is reported as over 9.20.

On to `Clc1cc2cnc(Nc3cnn(CC4CC4)c3Cl)nc2cc1C1CCN(C2COC2)CC1` [Ex-4.16, 6-chloro-N-[5-chloro-1-(cyclopropylmethyl)-1H-pyrazol-4-yl]-7-[1-(oxetan-3-yl)piperidin-4-yl]quinazolin-2-amine], for which the “LRRK2 pIC50” value was over 9.20.

Regarding `Clc1cc2cnc(Nc3cnn(C4COC4)c3Cl)nc2cc1C1CCN(C2COC2)CC1` [Ex-4.17, 6-chloro-N-[5-chloro-1-(oxetan-3-yl)-1H-pyrazol-4-yl]-7-[1-(oxetan-3-yl)piperidin-4-yl]quinazolin-2-amine], the “LRRK2 pIC50” value is on record as over 9.20.

Turning to `FC(F)n1cc(Nc2ncc3cc(Cl)c(C4CCN(C5COC5)CC4)cc3n2)cn1` [Ex-4.18, 6-chloro-N-[1-(difluoromethyl)-1H-pyrazol-4-yl]-7-[1-(oxetan-3-yl)piperidin-4-yl]quinazolin-2-amine], the “LRRK2 pIC50” value is listed as 9.16.

As to `Clc1cc2cnc(Nc3cnn(CC4CCC4)c3Cl)nc2cc1C1CCN(C2COC2)CC1` [Ex-4.19, 6-chloro-N-[5-chloro-1-(cyclobutylmethyl)-1H-pyrazol-4-yl]-7-[1-(oxetan-3-yl)piperidin-4-yl]quinazolin-2-amine], the “LRRK2 pIC50” value is 9.17.

With `CC1(CN2CCC(c3cc4nc(Nc5cnn(C6CC6)c5Cl)ncc4cc3Cl)CC2)COC1` [Ex-4.20, 6-chloro-N-(5-chloro-1-cyclopropyl-1H-pyrazol-4-yl)-7-{1-[(3-methyloxetan-3-yl)methyl]piperidin-4-yl}quinazolin-2-amine], the “LRRK2 pIC50” value was 8.11.

For the compound `CC1(n2ncc(Nc3ncc4cc(Cl)c(C5(F)CCN(C6COC6)CC5)cc4n3)c2Cl)CC1` [Ex-4.24, 6-chloro-N-[5-chloro-1-(1-methylcyclopropyl)-1H-pyrazol-4-yl]-7-[4-fluoro-1-(oxetan-3-yl)piperidin-4-yl]quinazolin-2-amine], the “LRRK2 pIC50” value is reported as over 9.20.

The same assay, now with this note: G2019S LRRK2, 134 μM ATP (Km ATP), mean values; read-out: LRRK2 pIC50 (converted).
With `CC1(N2CCC(c3cc4nc(Nc5cnn(C67CC(C6)C7)c5)ncc4cc3Cl)CC2)COC1` [Ex-2.18, N-(1-(bicyclo[1.1.1]pentan-1-yl)-1H-pyrazol-4-yl)-6-chloro-7-(1-(3-methyloxetan-3-yl)piperidin-4-yl)quinazolin-2-amine], the IC50 is under 0.631 nM.

On to `Cc1c(Nc2ncc3cc(Cl)c(C4CCN(C5COC5)CC4)cc3n2)cnn1C12CC(C1)C2` [Ex-2.21, N-[1-(bicyclo[1.1.1]pentan-1-yl)-5-methyl-1H-pyrazol-4-yl]-6-chloro-7-[1-(oxetan-3-yl)piperidin-4-yl]quinazolin-2-amine], for which the IC50 is 0.676 nM.

On to `COCC12CC(n3ncc(Nc4ncc5cc(Cl)c(C6CCN(C7(C)COC7)CC6)cc5n4)c3C)(C1)C2` [Ex-2.32, 6-chloro-N-{1-[3-(methoxymethyl)bicyclo[1.1.1]pentan-1-yl]-5-methyl-1H-pyrazol-4-yl}-7-[1-(3-methyloxetan-3-yl)piperidin-4-yl] quinazolin-2-amine], for which the IC50 was under 0.631 nM.
